The target in one assay is T1, muscarinic M2 receptor (Homo sapiens, UniProt P08172).
T1 construct: expressed in transfected cells
T1 sequence (P08172 1-466): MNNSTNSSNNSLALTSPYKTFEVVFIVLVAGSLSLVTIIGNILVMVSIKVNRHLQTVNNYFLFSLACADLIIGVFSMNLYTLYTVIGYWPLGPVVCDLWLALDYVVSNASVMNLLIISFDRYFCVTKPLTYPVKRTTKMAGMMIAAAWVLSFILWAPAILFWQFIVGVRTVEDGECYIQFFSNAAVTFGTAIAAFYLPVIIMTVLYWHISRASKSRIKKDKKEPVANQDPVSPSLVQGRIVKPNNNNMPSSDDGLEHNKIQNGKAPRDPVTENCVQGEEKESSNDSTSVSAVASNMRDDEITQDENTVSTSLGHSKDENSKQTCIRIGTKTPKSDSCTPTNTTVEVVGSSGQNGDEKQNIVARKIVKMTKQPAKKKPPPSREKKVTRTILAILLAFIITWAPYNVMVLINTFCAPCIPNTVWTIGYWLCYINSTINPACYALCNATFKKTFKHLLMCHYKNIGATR
Description: R-SAT functional screen, M2. It counts as cell-based. To be noted: for Emax: read-out: M2 eff (efficacy). The protocol:
(§1) Several compounds disclosed herein were evaluated for activity at muscarinic receptors using Receptor Selection and Amplification Technology (R-SAT) as described in U.S. Pat. No. 5,707,798, the disclosure of which is incorporated herein by reference in its entirety. The efficacy (eff) and potency (expressed as pEC50) of these compounds are presented in Table 1 at M1, M2, and M3 receptors.

The target in a further assay is T2, muscarinic M1 receptor (Homo sapiens, UniProt P11229).
T2 construct: expressed in transfected cells
T2 sequence (P11229 1-460): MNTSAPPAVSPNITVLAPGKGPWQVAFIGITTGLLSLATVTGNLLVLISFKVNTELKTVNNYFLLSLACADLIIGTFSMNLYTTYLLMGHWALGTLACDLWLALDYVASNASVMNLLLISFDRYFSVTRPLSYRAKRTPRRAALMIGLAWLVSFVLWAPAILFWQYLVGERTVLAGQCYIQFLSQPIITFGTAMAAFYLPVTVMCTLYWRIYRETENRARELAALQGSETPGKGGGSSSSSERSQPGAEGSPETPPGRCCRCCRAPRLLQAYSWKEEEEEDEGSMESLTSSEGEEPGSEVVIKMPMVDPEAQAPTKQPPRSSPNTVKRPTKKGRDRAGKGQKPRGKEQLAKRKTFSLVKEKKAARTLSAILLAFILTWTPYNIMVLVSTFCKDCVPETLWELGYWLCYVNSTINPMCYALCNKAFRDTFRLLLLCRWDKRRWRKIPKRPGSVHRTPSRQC
Description: R-SAT functional screen, M1. It counts as cell-based. To be noted: for Emax: read-out: M1 eff (efficacy). The protocol:
as §1

Setting [1] is: R-SAT, read-out: M1 pEC50 (converted).
[2] abbreviates: R-SAT, read-out: M2 pEC50 (converted).

Structures are written as SMILES. Where two headings read alike, the source gives them in different places.

Regarding `Clc1ccc2c(c1)N=C(N1CCNCC1)c1cccnc1N2` [8-Chloro-5-piperazin-1-yl-1H-benzo[b]pyrido[2,3-e][1,4]diazepine], the Emax on muscarinic M2 receptor was found to be 7%; at muscarinic M1 receptor, 51%. The EC50 at muscarinic M1 receptor (setting [1]) was 3160 nM.
In the case of `Clc1ccc2c(c1)N=C(c1cn[nH]c1)c1ccccc1N2` [8-Chloro-11-(1H-pyrazol-4-yl)-5H-dibenzo[b,e][1,4]diazepine], the Emax at muscarinic M2 receptor (R-SAT) amounted to 3%; on muscarinic M1 receptor (R-SAT), 9%.
As for `Clc1ccc2c(c1)N=C(N1CC3CC1CN3)c1ccccc1N2` (centres unmarked) [8-Chloro-11-(2,5-diaza-bicyclo[2.2.1]hept-2-yl)-5H-dibenzo[b,e][1,4]diazepine], the Emax amounted to 49% at muscarinic M2 receptor (R-SAT) and 34% at muscarinic M1 receptor (R-SAT). Further, the EC50 on muscarinic M2 receptor (setting [2]) is 2510 nM; at muscarinic M1 receptor (setting [1]), 251 nM.
On to `CC1CN(C2=Nc3cc(Cl)ccc3Nc3ccccc32)CC(C)N1` (centres unmarked) [8-Chloro-11-(3,5-dimethyl-piperazin-1-yl)-5H-dibenzo[b,e][1,4]diazepine], for which the values for the Emax on muscarinic M2 receptor (R-SAT) and on muscarinic M1 receptor (R-SAT) were 97% and 18%, respectively. In addition, the EC50 on muscarinic M2 receptor (setting [2]) was 2510 nM.
Regarding `Clc1ccc2c(c1)N=C(N1CCNC(c3ccccc3)C1)c1ccccc1N2` (centres unmarked) [8-Chloro-11-(3-phenyl-piperazin-1-yl)-5H-dibenzo[b,e][1,4]diazepine], the Emax came out at 23% on muscarinic M2 receptor (R-SAT) and 5% at muscarinic M1 receptor (R-SAT).
Consider `Fc1ccc(CC2=Nc3cc(Cl)ccc3Nc3ccccc32)cc1` [8-Chloro-11-(4-fluorobenzyl)-5H-dibenzo[b,e][1,4]diazepine], for which the Emax on muscarinic M2 receptor (R-SAT) amounted to 7%; on muscarinic M1 receptor (R-SAT), 3%.
The like results for `Fc1ccc(C2=Nc3cc(Cl)ccc3Nc3ccccc32)cc1` [8-Chloro-11-(4-fluorophenyl)-5H-dibenzo[b,e][1,4]diazepine] were, in that order, 4% and 13%.
Consider `CN1CCCN(C2=Nc3cc(Cl)ccc3Nc3ccccc32)CC1` [8-Chloro-11-(4-methyl-[1,4]diazepam-1-yl)-5H-dibenzo[b,e][1,4]diazepine], for which the EC50 on muscarinic M2 receptor is 1260 nM. Besides, the Emax on muscarinic M2 receptor turned out to be 50%; on muscarinic M1 receptor, 18%.
`CN1CCN(C2=Nc3cc(Cl)ccc3Oc3ccccc32)CC1` [8-Chloro-11-(4-methyl-piperazin-1-yl)-dibenzo[b,f][1,4]oxazepine]: the Emax turned out to be 46% at muscarinic M2 receptor (R-SAT) and 13% at muscarinic M1 receptor (R-SAT). Moreover, at muscarinic M2 receptor (setting [2]), the EC50 was 1580 nM.
With `CCCCCCCCCc1ccc(C2=Nc3cc(Cl)ccc3Nc3ccccc32)cc1` [8-Chloro-11-(4-nonylphenyl)-5H-dibenzo[b,e][1,4]diazepine], the Emax at muscarinic M2 receptor (R-SAT) came out at 8%; at muscarinic M1 receptor (R-SAT), 1%.
The corresponding values for `Clc1ccc2c(c1)N=C(N1CCOCC1)c1ccccc1N2` [8-Chloro-11-(morpholin-4-yl)-5H-dibenzo[b,e][1,4]diazepine] are 6% and 11%.
In the case of `Clc1ccc2c(c1)N=C(N1CCNCC1)c1ccccc1O2` [8-Chloro-11-(piperazin-1-yl)-dibenzo[b,f][1,4]oxazepine], the figures for the Emax at muscarinic M2 receptor (R-SAT) and on muscarinic M1 receptor (R-SAT) were 58% and 52%, respectively. For the same compound, the EC50 at muscarinic M2 receptor (setting [2]) is 1000 nM; on muscarinic M1 receptor (setting [1]), 100 nM.
`Clc1ccc2c(c1)N=C(N1CCNCC1)c1ccccc1S2` [8-Chloro-11-(piperazin-1-yl)-dibenzo[b,f][1,4]thiazepine]: the figures for the Emax on muscarinic M2 receptor (R-SAT) and on muscarinic M1 receptor (R-SAT) were 52% and 11%, respectively. Also, the EC50 on muscarinic M2 receptor (setting [2]) was 1260 nM.
Turning to `Clc1ccc2c(c1)N=C(N1CCCCC1)c1ccccc1N2` [8-Chloro-11-(piperidin-1-yl)-5H-dibenzo[b,e][1,4]diazepine], the Emax at muscarinic M2 receptor (R-SAT) is 9%; on muscarinic M1 receptor (R-SAT) it was 47%. Further, on muscarinic M1 receptor (setting [1]), the EC50 was 1580 nM.
As to `Clc1ccc2c(c1)N=C(C1CCNCC1)c1ccccc1N2` [8-Chloro-11-(piperidin-4-yl)-5H-dibenzo[b,e][1,4]diazepine], the Emax stood at 31% at muscarinic M2 receptor (R-SAT) and 57% at muscarinic M1 receptor (R-SAT). Moreover, the EC50 on muscarinic M2 receptor (setting [2]) was 2000 nM; on muscarinic M1 receptor (setting [1]) it was 631 nM.
In the case of `Clc1ccc2c(c1)N=C(c1ccncc1)c1ccccc1N2` [8-Chloro-11-(pyridin-4-yl)-5H-dibenzo[b,e][1,4]diazepine], the Emax on muscarinic M2 receptor (R-SAT) and at muscarinic M1 receptor (R-SAT) was 6% each time.
As for `Clc1ccc2c(c1)N=C(N1CCCNCC1)c1ccccc1N2` [8-Chloro-11-[1,4]diazepam-1-yl-5H-dibenzo[b,e][1,4]diazepine], the EC50 on muscarinic M2 receptor was 631 nM; on muscarinic M1 receptor, 100 nM. The Emax at muscarinic M2 receptor came to 82%; on muscarinic M1 receptor, 37%.
Take `Fc1ccc2c(c1)N=C(N1CCNCC1)c1ccccc1N2` [8-Fluoro-11-(piperazin-1-yl)-5H-dibenzo[b,e][1,4]diazepine]: the Emax at muscarinic M2 receptor (R-SAT) turned out to be 95%; on muscarinic M1 receptor (R-SAT), 32%. Also, the values for the EC50 at muscarinic M2 receptor (setting [2]) and on muscarinic M1 receptor (setting [1]) were 2000 nM and 200 nM, respectively.
As for `Fc1ccc2c(c1)N=C(N1CCCNCC1)c1ccccc1N2` [8-Fluoro-11-[1,4]diazepam-1-yl-5H-dibenzo[b,e][1,4]diazepine], the figures for the EC50 at muscarinic M2 receptor and on muscarinic M1 receptor were 251 nM and 200 nM, respectively. Besides, the Emax worked out at 67% on muscarinic M2 receptor and 25% at muscarinic M1 receptor.
Consider `Ic1ccc2c(c1)N=C(N1CCNCC1)c1ccccc1N2` [8-Iodo-11-(piperazin-1-yl)-5H-dibenzo[b,e][1,4]diazepine], for which the Emax amounted to 187% at muscarinic M2 receptor (R-SAT) and 75% on muscarinic M1 receptor (R-SAT). For the same compound, the EC50 on muscarinic M2 receptor (setting [2]) was 1000 nM; at muscarinic M1 receptor (setting [1]), 63.1 nM.
The corresponding values for `Cc1ccc2c(c1)N=C(N1CCNCC1)c1ccccc1N2` [8-Methyl-11-(piperazin-1-yl)-5H-dibenzo[b,e][1,4]diazepine] are 98%, 49%, 1000 nM and 158 nM.
For `c1ccc2c(c1)Sc1cc3c(cc1N=C2N1CCNCC1)OCCO3` [11-(piperazin-1-yl)-2,3-dihydro-1,4-benzodioxino[6,7-b][1,4]benzothiazepin], the Emax on muscarinic M2 receptor (R-SAT) is 28%; on muscarinic M1 receptor (R-SAT) it was 6%.
For the compound `N#Cc1ccc2c(c1)N=C(N1CCNCC1)c1ccccc1N2` [11-(piperazin-1-yl)-5H-dibenzo[b,e][1,4]diazepine-8-carbonitrile], the Emax at muscarinic M2 receptor (R-SAT) is 106%; on muscarinic M1 receptor (R-SAT), 49%. For the same compound, the results for the EC50 on muscarinic M2 receptor (setting [2]) and at muscarinic M1 receptor (setting [1]) were 1000 nM and 251 nM, respectively.
The like results for `c1ccc2c(c1)N=C(N1CCNCC1)c1ccccc1N2` [11-(piperazin-1-yl)-5H-dibenzo[b,e][1,4]diazepine] were, in that order, 70%, 38%, 2510 nM and 794 nM.
The corresponding values for `FC(F)(F)c1ccc2c(c1)N=C(N1CCNCC1)c1ccccc1N2` [11-(piperazin-1-yl)-8-trifluoromethyl-5H-dibenzo[b,e][1,4]diazepine] are 131%, 53%, 3160 nM and 316 nM.
Consider `c1ccc2c(c1)N=C(N1CCNCC1)c1ccccc1S2` [11-(piperazin-1-yl)-dibenzo[b,f][1,4]thiazepin], for which the Emax at muscarinic M2 receptor (R-SAT) came out at 41%; on muscarinic M1 receptor (R-SAT), 4%. In addition, the EC50 at muscarinic M2 receptor (setting [2]) was 316 nM.
In the case of `c1ccc2c(c1)N=C(N1CCCNCC1)c1ccccc1N2` [11-[1,4]Diazepam-1-yl-5H-dibenzo[b,e][1,4]diazepine], the figures for the Emax at muscarinic M2 receptor and on muscarinic M1 receptor were 25% and 18%, respectively.
For `Clc1ccc2c(c1)N=C(NC[C@H]1CCCN1)c1ccccc1N2` [(8-Chloro-5H-dibenzo[b,e][1,4]diazepin-11-yl)-(R)-1-pyrrolidin-2-yl-methyl-amine], the Emax is 5% at muscarinic M2 receptor (R-SAT) and 4% on muscarinic M1 receptor (R-SAT).
`Clc1ccc2c(c1)N=C(NC[C@@H]1CCCN1)c1ccccc1N2` [(8-Chloro-5H-dibenzo[b,e][1,4]diazepin-11-yl)-(S)-1-pyrrolidin-2-yl-methyl-amine]: the Emax amounted to 23% at muscarinic M2 receptor (R-SAT) and 77% at muscarinic M1 receptor (R-SAT). Further, the EC50 on muscarinic M1 receptor (setting [1]) was 501 nM.
In the case of `Clc1ccc2c(c1)N=C(NC1CCNC1)c1ccccc1N2` (centres unmarked) [(8-Chloro-5H-dibenzo[b,e][1,4]diazepin-11-yl)-pyrrolidin-3-yl-amine], the Emax on muscarinic M2 receptor (R-SAT) is 18%; on muscarinic M1 receptor (R-SAT) it was 10%.
The corresponding values for `CN(C)CCNC1=Nc2ccccc2Nc2ccccc21` [N′-(5H-Dibenzo[b,e][1,4]diazepine-11-yl)-N,N-dimethyl-ethane-12-diamine] are 20% and 10%.

The values are drawn from patent US20090239840A1, “AMINO SUBSTITUTED DIARYL[a,d]CYCLOHEPTENE ANALOGS AS [sequence] AGONISTS AND METHODS OF TREATMENT OF NEUROPSYCHIATRIC DISORDERS” (ACADIA PHARMACEUTICALS, INC., priority 2003, published 2009).
